Reference: patent publication US20090053220A1, “METHODS AND COMPOSITIONS FOR THE INHIBITION OF HIV INFECTION OF T CELLS” (priority 2006, published 2009)

Columns and labels:
[1] = target: envelope protein of HIV strain JRCSF (WT) (HIV strain JRCSF) (UniProt P20871); assay: cell-based or functional assay
[2] = target: envelope protein of HIV strain JRCSF with G36D (HIV strain JRCSF) (UniProt P20871); assay: cell-based or functional assay
[3] = target: envelope protein of HIV strain JRCSF with N43D (HIV strain JRCSF) (UniProt P20871); assay: cell-based or functional assay
[4] = target: envelope protein of HIV strain JRCSF with V38A (HIV strain JRCSF) (UniProt P20871); assay: cell-based or functional assay
[5] = test system: patient-derived envelope population KJM (week 9) reporter virus; format: cell-based, HIV; details: KJM W9 virus
Description: (§1) HIV RNA was extracted from patient serum using QIAamp isolation kits (Qiagen, Hilden. Germany) and used to generate cDNA with random hexamer primers (SuperScript First Strand Synthesis System for RT-PCR, Invitrogen, Carlsbad, Calif.). HIV envelope protein open reading frame sequences were specifically amplified using a nested PCR procedure with outer PCR primers: […]
(§2) which initiate priming 239 bases upstream and 349 bases downstream of the envelope open reading frame, respectively. The inner PCR primers were the same primers used for directional cloning of the envelope sequence populations into the pCI-neo vector, as described in Example 4. The resulting PCR products represent a population of envelope sequences from HIV viruses present in two patient samples, KJM (day 1) and KJM (week 9).
(§3) HIV reporter viruses for purposes of this experiment were constructed from: (1) the JRCSF WT envelope protein vector, (2) the T-20-resistant envelope protein variants G36D, V38A, or N43D generated in Example 4; or (3) the patient derived HIV envelope protein population of vectors from KJM (Day 1) or KJM (Week9) generated in Example 5. The reporter viruses were produced by co-transfecting the human embryonic kidney cell line HEK293FT (Invitrogen, Carlsbad, Calif.) with the envelope vectors described above and an envelope-deficient proviral DNA encoding a luciferase reporter gene. The cells were propagated in Dulbecco's Modified Eagle Medium (Invitrogen, Carlsbad, Calif.) supplemented with 10% fetal bovine serum (Invitrogen, Carlsbad, Calif.). Transfections were performed using Lipofectamine 2000 (Invitrogen, Carlsbad, Calif.). Culture supernatants were harvested 48 hours post-transfection and filtered through a 0.45 micron filter prior to infecting target cells.
(§4) Viral infections were carried out in a human malignant glioma (U87) target cell expressing the human CD4 receptor and the human CCR5 chemokine receptor. Target cells were seeded into 96-well plates at a density of 3000 cells/well in Dulbecco's Modified Eagle Medium (Invitrogen, Carlsbad, Calif.) supplemented with 10% fetal bovine serum (Invitrogen. Carlsbad, Calif.) and cultured for […]. Target cells were then exposed to the virus generated in Example 6 mixed with varying concentrations of the entry inhibitors T-20 or an anti-CD4 MAb in a final volume of 40-80 microliters. Infection was triggered by centrifugation of the 96-well plates at 1200*g for 1.5-2.0 hours at 25° C. (i.e. spinoculation). After spinoculation, culture medium was added to a final volume of […] per well and the infected cultures were incubated for 3 days at 37° C. After 3 days the level of luciferase expressed in target cells was measured using a luciferase reporter gene assay reagent (Promega, Madison, Wis.), as described by the manufacturer.
(§5) Dose-response curves for the inhibition of luciferase expression by entry inhibitors were derived by fitting the luciferase data with a four-parameter logistic using Origin 7 Client software (OriginLab, Northampton, Mass.). Each dose-response experiment comprised a nine point concentration curve plus untreated controls, all assayed in triplicate wells (raw data not shown). For each EC50 determination, the results of three or more independent experiments were used to calculate the average EC50 and standard error values.

[6] = test system: patient-derived envelope population KJM (day 1) reporter virus; format: cell-based, HIV; details: KJM D1 virus
Description: as §1, §2, §3, §4, §5

[7] = test system: JRCSF WT envelope reporter virus; format: cell-based, HIV
Description: A DNA expression vector comprising the envelope protein of HIV strain JRCSF was constructed using a commercially available pCI-neo vector (Promega, Madison, Wis.). JRCSF is a primary isolate obtained from an HIV patient which was deposited with the NIH AIDS Research & Reference Reagent Program (Cat. No. 2708). The JRCSF envelope open reading frame was amplified by standard PCR using the following primers: […]
These primers initiate priming at codon 2 of the envelope open reading frame and immediately downstream of the envelope termination codon, respectively. They contain restriction enzymes recognition sequences suitable for directional cloning into the pCI-neo vector. This JRCSF envelope protein expression vector was used in Example 6 below as the WT control. […]
Viral infections were carried out in a human malignant glioma (U87) target cell expressing the human CD4 receptor and the human CCR5 chemokine receptor. […] After 3 days the level of luciferase expressed in target cells was measured using a luciferase reporter gene assay reagent (Promega, Madison, Wis.), as described by the manufacturer. […]

[8] = test system: T-20-resistant JRCSF envelope variant G36D reporter virus; format: cell-based, HIV
Description: (§6) In addition, three single amino acid substitutions, G36D, V38A and N43D, known to confer T-20 resistance for HIV were introduced into the JRCSF open reading frame by site-directed mutagenesis (QuikChange II kit, Stratagene, La Jolla, Calif.), thereby generating three T-20-resistant HIV envelope protein expression vectors called […], V38A and N43D.
as §3, §4, §5

[9] = test system: T-20-resistant JRCSF envelope variant N43D reporter virus; format: cell-based, HIV
Description: as §6, §3, §4, §5

[10] = test system: T-20-resistant JRCSF envelope variant V38A reporter virus; format: cell-based, HIV
Description: as §6, §3, §4, §5

[11] = average +/- standard error, 4 determinations

Substance: T-20 (peptide)
- PMI [1]: 98%
- Fold Change (EC50MUT/EC50WT JRCSF) [2]: 11 fold
- PMI [2]: 99%
- Fold Change (EC50MUT/EC50WT JRCSF) [3]: 22 fold
- PMI [3]: 96%
- Fold Change (EC50MUT/EC50WT JRCSF) [4]: 32 fold
- PMI [4]: 91%

Substance: enfuvirtide
- PMI [5]: 100 ± 0.58
- Fold Change ([5]; EC50W9/EC50D1): 0.93
- EC50 [5, 11]: 0.0085 ± 0.0027 µg/mL
- PMI [6]: 99 ± 1.3
- EC50 [6, 11]: 0.0091 ± 0.003 µg/mL
- PMI [7]: 98 ± 2.4
- EC50 [7, 11]: 0.013 ± 0.0035 µg/mL
- PMI [8]: 99 ± 1.5
- Fold Change ([8]; EC50MUT/EC50WT JRCSF): 11
- EC50 [8, 11]: 0.14 ± 0.026 µg/mL
- PMI [9]: 96 ± 3.4
- Fold Change ([9]; EC50MUT/EC50WT JRCSF): 22
- EC50 [9, 11]: 0.28 ± 0.08 µg/mL
- PMI [10]: 91 ± 8.9
- Fold Change ([10]; EC50MUT/EC50WT JRCSF): 32
- EC50 [10, 11]: 0.41 ± 0.21 µg/mL
